Experimental data reported in patent US11548870B2, “Compounds useful as inhibitors of helios protein” (Bristol-Myers Squibb Company, priority 2019, dated 2023).
Values joined by “and” are separate entries in the source; they are usually repeats but may differ in a detail not shown here. Equal values may be shown once.

Legend:
Ikaros = target: T1, Ikaros (Homo sapiens, UniProt Q13422); test: Helios Cellular Degradation Assay, Ikaros readout (flow cytometry, Ikaros-Alexa488 antibody staining, 72 h); type: cell-based; conditions: Jurkat cells, 72 h incubation, flow cytometry; for Dmax: Jurkat, read-out: Ikaros Dmax
T1 construct: fluorescently labelled antibodies against Helios and Ikaros; endogenous in cells; host or cells: Jurkat cells
T1 sequence (Q96SW2 whole entry partner): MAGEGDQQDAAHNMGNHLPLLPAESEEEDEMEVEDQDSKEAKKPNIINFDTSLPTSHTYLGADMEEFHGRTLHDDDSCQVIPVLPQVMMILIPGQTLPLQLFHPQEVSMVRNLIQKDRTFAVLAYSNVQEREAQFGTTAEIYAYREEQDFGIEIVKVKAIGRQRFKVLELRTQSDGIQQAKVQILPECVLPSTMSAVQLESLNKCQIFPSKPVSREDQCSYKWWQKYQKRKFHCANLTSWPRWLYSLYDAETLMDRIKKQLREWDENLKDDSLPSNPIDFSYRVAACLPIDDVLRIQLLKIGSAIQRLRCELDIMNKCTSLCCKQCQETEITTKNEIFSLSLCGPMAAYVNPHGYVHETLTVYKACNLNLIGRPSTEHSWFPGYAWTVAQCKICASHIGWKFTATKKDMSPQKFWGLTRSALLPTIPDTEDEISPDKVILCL
T1 sequence (Q16531 whole entry partner): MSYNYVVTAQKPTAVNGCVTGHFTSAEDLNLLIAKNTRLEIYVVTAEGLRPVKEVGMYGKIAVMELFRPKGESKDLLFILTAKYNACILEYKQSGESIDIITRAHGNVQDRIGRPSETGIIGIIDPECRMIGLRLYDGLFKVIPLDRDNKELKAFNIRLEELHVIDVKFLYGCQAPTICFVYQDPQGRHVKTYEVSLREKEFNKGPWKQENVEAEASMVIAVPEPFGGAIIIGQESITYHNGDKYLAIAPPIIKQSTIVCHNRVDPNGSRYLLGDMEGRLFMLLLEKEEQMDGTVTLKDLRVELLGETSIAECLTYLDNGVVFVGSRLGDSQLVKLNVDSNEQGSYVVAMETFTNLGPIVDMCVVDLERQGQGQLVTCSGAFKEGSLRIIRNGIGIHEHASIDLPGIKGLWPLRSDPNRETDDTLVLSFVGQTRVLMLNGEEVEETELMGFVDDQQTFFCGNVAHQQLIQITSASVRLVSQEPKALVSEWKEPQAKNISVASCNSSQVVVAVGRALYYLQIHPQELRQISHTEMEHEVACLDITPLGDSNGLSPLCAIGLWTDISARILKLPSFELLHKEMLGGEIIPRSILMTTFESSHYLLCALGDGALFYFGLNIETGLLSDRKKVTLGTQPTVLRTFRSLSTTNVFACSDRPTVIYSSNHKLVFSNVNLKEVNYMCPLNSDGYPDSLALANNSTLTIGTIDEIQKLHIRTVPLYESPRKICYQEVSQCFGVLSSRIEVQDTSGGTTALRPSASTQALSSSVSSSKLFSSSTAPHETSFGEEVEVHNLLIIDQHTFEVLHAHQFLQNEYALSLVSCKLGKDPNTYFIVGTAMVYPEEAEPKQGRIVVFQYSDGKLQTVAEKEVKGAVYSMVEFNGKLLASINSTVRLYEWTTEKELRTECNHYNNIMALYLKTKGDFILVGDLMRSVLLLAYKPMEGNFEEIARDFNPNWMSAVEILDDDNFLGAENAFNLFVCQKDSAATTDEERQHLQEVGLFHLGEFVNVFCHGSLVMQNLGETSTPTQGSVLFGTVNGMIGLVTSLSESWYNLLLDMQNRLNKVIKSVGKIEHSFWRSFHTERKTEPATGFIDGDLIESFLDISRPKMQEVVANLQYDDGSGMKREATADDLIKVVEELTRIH
T1 sequence (Q13422 whole entry): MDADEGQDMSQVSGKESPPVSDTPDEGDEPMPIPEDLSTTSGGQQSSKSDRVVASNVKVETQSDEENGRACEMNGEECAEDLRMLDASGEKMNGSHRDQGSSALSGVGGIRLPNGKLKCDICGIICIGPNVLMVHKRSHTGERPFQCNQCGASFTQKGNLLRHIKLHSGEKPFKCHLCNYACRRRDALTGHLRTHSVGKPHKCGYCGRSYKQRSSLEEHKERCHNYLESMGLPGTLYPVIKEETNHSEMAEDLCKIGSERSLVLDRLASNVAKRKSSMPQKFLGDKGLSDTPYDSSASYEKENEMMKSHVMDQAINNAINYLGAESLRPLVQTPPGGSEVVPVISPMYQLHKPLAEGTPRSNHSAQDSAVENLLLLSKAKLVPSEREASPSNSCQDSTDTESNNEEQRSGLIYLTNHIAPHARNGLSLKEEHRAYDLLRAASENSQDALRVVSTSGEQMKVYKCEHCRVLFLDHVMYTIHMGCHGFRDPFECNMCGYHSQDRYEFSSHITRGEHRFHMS
Procedure, shortened: (§1)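 Jurkat cells (80,000/well, RPMI+10% FBS) were exposed to compound for 72 h at 37 °C, then fixed, permeabilized and co-stained for 1 h with Ikaros-Alexa488 and Helios-PE antibodies. Intracellular protein levels were read by flow cytometry.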

Helios = target: T2, Helios (Homo sapiens, UniProt Q96SW2+Q9UKS7); test: Helios Cellular Degradation Assay (flow cytometry, Helios-PE antibody staining, 72 h); type: cell-based; conditions: Jurkat cells, 72 h incubation, flow cytometry; for Dmax: Jurkat, read-out: Helios Dmax
T2 construct: fluorescently labelled antibodies against Helios and Ikaros; endogenous in cells; host or cells: Jurkat cells
T2 sequence (Q9UKS7 whole entry): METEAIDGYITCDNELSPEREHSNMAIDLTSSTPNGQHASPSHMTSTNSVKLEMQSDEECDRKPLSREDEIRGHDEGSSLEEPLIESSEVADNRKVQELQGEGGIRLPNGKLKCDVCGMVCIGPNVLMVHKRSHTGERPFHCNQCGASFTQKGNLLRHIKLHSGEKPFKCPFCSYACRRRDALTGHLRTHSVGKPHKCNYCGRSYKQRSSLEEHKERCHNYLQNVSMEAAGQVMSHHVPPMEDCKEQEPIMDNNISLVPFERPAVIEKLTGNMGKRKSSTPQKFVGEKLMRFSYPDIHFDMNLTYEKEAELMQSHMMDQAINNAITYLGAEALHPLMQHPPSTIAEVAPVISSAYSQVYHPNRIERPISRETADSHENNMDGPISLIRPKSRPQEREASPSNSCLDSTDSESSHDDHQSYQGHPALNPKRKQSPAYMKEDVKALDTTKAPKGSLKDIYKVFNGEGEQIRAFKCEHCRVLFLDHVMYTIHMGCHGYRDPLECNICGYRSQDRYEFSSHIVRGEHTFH
T2 sequence (Q96SW2 whole entry): as the sequence (Q96SW2 whole entry partner) above
T2 sequence (Q16531 whole entry partner): as the sequence (Q16531 whole entry partner) above
Procedure, shortened: as §1

Row | Compound | DC50 (Ikaros) [nM] | Dmax (Ikaros) [%] | DC50 (Helios) [nM] | Dmax (Helios) [%] | Ikaros Dmax (Ikaros) | Helios Dmax (Helios) [%]
1 | CN1CCC(N(C)Cc2ccnc(-c3ccc4c(c3)CN(C3CCC(=O)NC3=O)C4=O)c2)CC1 (centres unmarked) [Example 170, 3-(5-(4-((methyl (1-methylpiperidin-4-yl)amino)methyl)pyridin-2-yl)-1-oxoisoindolin-2-yl)piperidine-2,6-dione] | > 10000 | 2 | > 10000 | 22 | – | –
2 | CN(CCc1ccccc1)Cc1ccnc(-c2ccc3c(c2)CN(C2CCC(=O)NC2=O)C3=O)c1 (centres unmarked) [Example 171, 3-(5-(4-((methyl(phenethyl)amino)methyl)pyridin-2-yl)-1-oxoisoindolin-2-yl)piperidine-2,6-dione] | > 10000 | 4 | 317 | 80 | – | –
3 | CN(Cc1ccnc(-c2ccc3c(c2)CN(C2CCC(=O)NC2=O)C3=O)c1)Cc1cncn1C (centres unmarked) [Example 174, 3-(5-(4-((methyl((1-methyl-1H-imidazol-5-yl)methyl)amino)methyl)pyridin-2-yl)-1-oxoisoindolin-2-yl)piperidine-2,6-dione] | > 10000 | 20 | 5870 | 54 | – | –
4 | CN(Cc1ccnc(-c2ccc3c(c2)CN(C2CCC(=O)NC2=O)C3=O)c1)CC1CCCC1 (centres unmarked) [Example 175, 3-(5-(4-(((cyclopentylmethyl)(methyl)amino)methyl)pyridin-2-yl)-1-oxoisoindolin-2-yl) piperidine-2,6-dione] | > 10000 | 7 | 78 | 78 | – | –
5 | CN(Cc1ccnc(-c2ccc3c(c2)CN(C2CCC(=O)NC2=O)C3=O)c1)Cc1nccs1 (centres unmarked) [Example 176, 3-(5-(4-((methyl(thiazol-2-ylmethyl)amino)methyl)pyridin-2-yl)-1-oxoisoindolin-2-yl)piperidine-2,6-dione] | > 10000 | 30 | 1120 | 65 | – | –
6 | CN(Cc1ccc(-n2ccnc2)cc1)Cc1ccnc(-c2ccc3c(c2)CN(C2CCC(=O)NC2=O)C3=O)c1 (centres unmarked) [Example 177, 3-(5-(4-(((4-(1H-imidazol-1-yl)benzyl)(methyl)amino)methyl)pyridin-2-yl)-1-oxoisoindolin-2-yl)piperidine-2,6-dione] | > 10000 | 12 | > 10000 | 43 | – | –
7 | CC(C)CN(C)Cc1ccnc(-c2ccc3c(c2)CN(C2CCC(=O)NC2=O)C3=O)c1 (centres unmarked) [Example 179, 3-(5-(4-((isobutyl(methyl)amino)methyl)pyridin-2-yl)-1-oxoisoindolin-2-yl)piperidine-2,6-dione] | > 10000 | 4 | 212 | 78 | – | –
8 | CC(C)CCN(C)Cc1ccnc(-c2ccc3c(c2)CN(C2CCC(=O)NC2=O)C3=O)c1 (centres unmarked) [Example 180, 3-(5-(4-((isopentyl(methyl)amino)methyl)pyridin-2-yl)-1-oxoisoindolin-2-yl)piperidine-2,6-dione] | > 10000 | 13 | 352 | 87 | – | –
9 | CC(CO)N(C)Cc1ccnc(-c2ccc3c(c2)CN(C2CCC(=O)NC2=O)C3=O)c1 (centres unmarked) [Example 181, 3-(5-(4-(((1-hydroxypropan-2-yl)(methyl)amino)methyl)pyridin-2-yl)-1-oxoisoindolin-2-yl) piperidine-2,6-dione] | > 10000 | 10 | 499 | 83 | – | –
10 | CN(Cc1ccnc(-c2ccc3c(c2)CN(C2CCC(=O)NC2=O)C3=O)c1)CC1CCOC1 (centres unmarked) [Example 182, 3-(5-(4-((methyl((tetrahydrofuran-3-yl)methyl)amino)methyl)pyridin-2-yl)-1-oxoisoindolin-2-yl)piperidine-2,6-dione] | > 10000 | 23 | 316 | 79 | – | –
11 | CN(Cc1ccnc(-c2ccc3c(c2)CN(C2CCC(=O)NC2=O)C3=O)c1)Cc1cnc2ccccc2n1 (centres unmarked) [Example 183, 3-(5-(4-((methyl (quinoxalin-2-ylmethyl)amino)methyl)pyridin-2-yl)-1-oxoisoindolin-2-yl)piperidine-2,6-dione] | > 10000 | 10 | 167 | 76 | – | –
12 | CN(CCC(F)(F)F)Cc1ccnc(-c2ccc3c(c2)CN(C2CCC(=O)NC2=O)C3=O)c1 (centres unmarked) [Example 184, 3-(5-(4-((methyl(3,3,3-trifluoropropyl)amino)methyl)pyridin-2-yl)-1-oxoisoindolin-2-yl)piperidine-2,6-dione] | > 10000 | 14 | 6050 | 54 | – | –
13 | CC(CCO)N(C)Cc1ccnc(-c2ccc3c(c2)CN(C2CCC(=O)NC2=O)C3=O)c1 (centres unmarked) [Example 185, 3-(5-(4-(((4-hydroxybutan-2-yl)(methyl)amino)methyl)pyridin-2-yl)-1-oxoisoindolin-2-yl)piperidine-2,6-dione] | > 10000 | 2 | 421 | 62 | – | –
14 | O=C1CCC(N2Cc3cc(-c4cc(CN5CC(c6ccccc6)C5)c(Cl)cn4)ccc3C2=O)C(=O)N1 (centres unmarked) [Example 186, 3-(5-(5-chloro-4-((3-phenylazetidin-1-yl)methyl)pyridin-2-yl)-1-oxoisoindolin-2-yl)piperidine-2,6-dione] | > 10000 | 8 | 230 | 62 | – | –
15 | O=C1CCC(N2Cc3cc(-c4nccc(CN5CC(c6ccccc6)C5)c4F)ccc3C2=O)C(=O)N1 (centres unmarked) [Example 191, 3-(5-(3-fluoro-4-((3-phenylazetidin-1-yl)methyl)pyridin-2-yl)-1-oxoisoindolin-2-yl) piperidine-2,6-dione] | > 10000 | 3 | 3200 | 52 | – | –
16 | O=C1CCC(N2Cc3cc(-c4nccc(CN5CC(c6cccnc6)C5)c4F)ccc3C2=O)C(=O)N1 (centres unmarked) [Example 192, 3-(5-(3-fluoro-4-((3-(pyridin-3-yl)azetidin-1-yl)methyl)pyridin-2-yl)-1-oxoisoindolin-2-yl)piperidine-2,6-dione] | > 10000 | 16 | > 10000 | 41 | – | –
17 | O=C1CCC(N2Cc3cc(-c4nccc(CN5CCC5c5ccccc5)c4F)ccc3C2=O)C(=O)N1 (centres unmarked) [Example 193, 3-(5-(3-fluoro-4-((2-phenylazetidin-1-yl)methyl)pyridin-2-yl)-1-oxoisoindolin-2-yl) piperidine-2,6-dione] | > 10000 | 14 | 120 | 60 | – | –
18 | Cc1cc2c(cc1-c1cc(CN(C)C)ccn1)CN(C1CCC(=O)NC1=O)C2=O (centres unmarked) [Example 194, 3-(5-(4-((dimethylamino)methyl)pyridin-2-yl)-6-methyl-1-oxoisoindolin-2-yl)piperidine-2,6-dione] | > 10000 | – | > 10000 | 5.16 | 0.04% and 3% | 5.2

Continued, values first:

Row | DC50 (Ikaros) [nM] | Dmax (Ikaros) [%] | DC50 (Helios) [nM] | Dmax (Helios) [%] | Ikaros Dmax (Ikaros) | Helios Dmax (Helios) [%] | Compound
19 | > 10000 | 12 | 75 | 90 | – | – | CN(Cc1ccoc1)Cc1ccnc(-c2ccc3c(c2)CN(C2CCC(=O)NC2=O)C3=O)c1 (centres unmarked) [Example 172, 3-(5-(4-(((furan-3-ylmethyl)(methyl)amino)methyl)pyridin-2-yl)-1-oxoisoindolin-2-yl)piperidine-2,6-dione]
20 | > 10000 | 0 | 73 | 86 | – | – | CN(Cc1ccnc(-c2ccc3c(c2)CN(C2CCC(=O)NC2=O)C3=O)c1)CC1CC1 (centres unmarked) [Example 173, 3-(5-(4-(((cyclopropylmethyl)(methyl)amino)methyl)pyridin-2-yl)-1-oxoisoindolin-2-yl) piperidine-2,6-dione]
21 | > 10000 | 6 | 24 | 84 | – | – | O=C1CCC(N2Cc3cc(-c4cc(CN5CCC5c5ccccc5)c(Cl)cn4)ccc3C2=O)C(=O)N1 (centres unmarked) [Example 187, 3-(5-(5-chloro-4-((2-phenylazetidin-1-yl)methyl)pyridin-2-yl)-1-oxoisoindolin-2-yl)piperidine-2,6-dione]
22 | – | 16 | 27 | 76 | – | – | O=C1CCC(N2Cc3cc(-c4cc(CN5CC(c6ccccc6)C5)c(F)cn4)ccc3C2=O)C(=O)N1 (centres unmarked) [Example 188, 3-(5-(5-fluoro-4-((3-phenylazetidin-1-yl)methyl)pyridin-2-yl)-1-oxoisoindolin-2-yl) piperidine-2,6-dione]
23 | > 10000 | 16 | 11 | 80 | – | – | O=C1CCC(N2Cc3cc(-c4cc(CN5CCC5c5ccccc5)c(F)cn4)ccc3C2=O)C(=O)N1 (centres unmarked) [Example 189, 3-(5-(5-fluoro-4-((2-phenylazetidin-1-yl)methyl)pyridin-2-yl)-1-oxoisoindolin-2-yl)piperidine-2,6-dione]
24 | > 10000 | 16 | 76 | 71 | – | – | O=C1CCC(N2Cc3cc(-c4cc(CN5CC(c6cccnc6)C5)c(F)cn4)ccc3C2=O)C(=O)N1 (centres unmarked) [Example 190, 3-(5-(5-fluoro-4-((3-(pyridin-3-yl)azetidin-1-yl)methyl)pyridin-2-yl)-1-oxoisoindolin-2-yl) piperidine-2,6-dione]
25 | > 10000 | 7 | 45 | 78 | – | – | COC1(C)CN(Cc2ccnc(-c3ccc4c(c3)CN(C3CCC(=O)NC3=O)C4=O)c2)C1 (centres unmarked) [Example 196, 3-(5-(4-((3-methoxy-3-methylazetidin-1-yl)methyl)pyridin-2-yl)-1-oxoisoindolin-2-yl)piperidine-2,6-dione]
26 | > 10000 | 20 | 42 | 75 | – | – | COC1CN(Cc2ccnc(-c3ccc4c(c3)CN(C3CCC(=O)NC3=O)C4=O)c2)C1 (centres unmarked) [Example 197, 3-(5-(4-((3-methoxyazetidin-1-yl)methyl)pyridin-2-yl)-1-oxoisoindolin-2-yl)piperidine-2,6-dione]
